In the supplement of paper PMC11061612:

Columns and labels:
[1] = test system: Ca-Ski (Cervical Carcinoma); test: combination Emax (second highest fraction inhibited in the dose matrix, 72 h); higher = more inhibition; extreme values may be limits of the assay
How it was run: (§1)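 Bliss excess equals the observed combination effect minus the expected value EA + EB − EA·EB, where EA and EB are the effects of each agent alone. Combination Emax is the second-highest inhibition within the matrix. Inhibition was scaled from CellTiter-Glo 2.0 luminescence, with 0 set by vehicle wells and 1 by blank wells, after 72 hours of two-drug dosing of cells plated in 1536-well plates.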

[2] = test system: MDA-MB-453 (Breast Carcinoma); test: as above
How it was run: as §1

[3] = test system: OE33 (Esophageal Adenocarcinoma); test: as above
How it was run: as §1

[4] = test system: HAL-01 (B-Lymphoblastic Leukemia); test: as above
How it was run: as §1

[5] = test system: MV-4-11 (Acute Myeloid Leukemia); test: as above
How it was run: as §1

[6] = test system: NCI-H522 (Lung Adenocarcinoma); test: as above
How it was run: as §1

[7] = test system: SKN (Other Solid Carcinomas); test: as above
How it was run: as §1

[8] = test system: NCI-H1993 (Lung Adenocarcinoma); test: as above
How it was run: as §1

SK-N-AS (Neuroblastoma) = test: as above
How it was run: as §1

[9] = test system: NCI-H1838 (Lung Adenocarcinoma); test: Bliss excess, mean over the matrix (fraction); higher = more synergy
How it was run: as §1

[10] = test system: NCI-H1092 (Small Cell Lung Carcinoma); test: as above
How it was run: as §1

[11] = test system: NCI-H2122 (Lung Adenocarcinoma); test: as above
How it was run: as §1

[12] = test system: LC-1-sq (Squamous Cell Lung Carcinoma); test: as above
How it was run: as §1

Hey (Ovarian Carcinoma) = test: as above
How it was run: as §1

[13] = test system: HCC1937 (Breast Carcinoma); test: as above
How it was run: as §1

EW-1 (Ewing's Sarcoma) = test: as above
How it was run: as §1

[14] = test system: OACM5-1 (Esophageal Adenocarcinoma); test: as above
How it was run: as §1

[15] = test system: NCI-H650 (Lung Adenocarcinoma); test: as above
How it was run: as §1

[16] = test system: KOPN-8 (B-Lymphoblastic Leukemia); test: as above
How it was run: as §1

[17] = test system: HCC2998 (Colorectal Carcinoma); test: as above
How it was run: as §1

CN(CCO)CC[C@H](CSc1ccccc1)Nc1ccc(S(=O)(=O)NC(=O)c2ccc(N3CCC([C@@H](O)c4ccccc4-c4ccc(Cl)cc4)CC3)cc2)cc1S(=O)(=O)C(F)(F)F [AZD4320] + Cc1cc2ncnn2cc1Nc1ncc2c(n1)n(C1CCOCC1)c(=O)n2C [AZD7648] (first compound max 1 µM, 7x7, partner max 10 µM)
combination Emax [1]: 0.208
combination Emax [2]: 0.285
combination Emax [3]: 0.222
combination Emax [4]: 0.882
combination Emax [5]: 1
combination Emax [6]: 0.0447
combination Emax [7]: 0.15
combination Emax [8]: 0.785
combination Emax (SK-N-AS (Neuroblastoma)): 0.182
Bliss excess [9]: -0.0291
Bliss excess [10]: 0.005
Bliss excess [11]: -0.0074
Bliss excess [12]: -0.0093
Bliss excess (Hey (Ovarian Carcinoma)): -0.0728
Bliss excess [13]: -0.0352
Bliss excess (EW-1 (Ewing's Sarcoma)): 0.0033
Bliss excess [14]: -0.0545
Bliss excess [15]: -0.021
Bliss excess [16]: -0.0243
Bliss excess [17]: -0.0035

Cc1cc2ncnn2cc1Nc1ncc2c(n1)n(C1CCOCC1)c(=O)n2C [AZD7648] + C=CCn1c(=O)c2cnc(Nc3ccc(N4CCN(C)CC4)cc3)nc2n1-c1cccc(C(C)(C)O)n1 [AZD1775] (first compound max 10 µM, partner max 1 µM)
combination Emax [1]: 0.704
combination Emax [2]: 0.347
combination Emax [3]: 0.537
combination Emax [4]: 0.914
combination Emax [5]: 0.954
combination Emax [6]: 0.373
combination Emax [7]: 0.38
combination Emax [8]: 0.635
combination Emax (SK-N-AS (Neuroblastoma)): 0.949
Bliss excess [9]: -0.0149
Bliss excess [10]: -0.0873
Bliss excess [11]: -0.0122
Bliss excess [12]: 0.0567
Bliss excess (Hey (Ovarian Carcinoma)): -0.0086
Bliss excess [13]: -0.0069
Bliss excess (EW-1 (Ewing's Sarcoma)): 0.0272
Bliss excess [14]: -0.0206
Bliss excess [15]: 0.0029
Bliss excess [16]: -0.0472
Bliss excess [17]: 0.0368

C[C@@H](c1ccc2nccn2c1)n1nnc2ncc(-c3cnn(C)c3)nc21 [Savolitinib] + CC1(C)CCC(CN2CCN(c3ccc(C(=O)NS(=O)(=O)c4ccc(NCC5CCOCC5)c([N+](=O)[O-])c4)c(Oc4cnc5[nH]ccc5c4)c3)CC2)=C(c2ccc(Cl)cc2)C1 [Venetoclax] (first compound max 1 µM, 7x7, partner max 1 µM)
combination Emax [1]: 0.174
combination Emax [2]: 0.15
combination Emax [3]: 0.301
combination Emax [4]: 0.703
combination Emax [5]: 1
combination Emax [6]: 0.111
combination Emax [7]: 0.169
combination Emax [8]: 0.754
combination Emax (SK-N-AS (Neuroblastoma)): 0.12
Bliss excess [9]: -0.049
Bliss excess [10]: -0.0916
Bliss excess [11]: -0.0559
Bliss excess [12]: -0.0408
Bliss excess (Hey (Ovarian Carcinoma)): -0.0651
Bliss excess [13]: -0.0884
Bliss excess (EW-1 (Ewing's Sarcoma)): -0.0386
Bliss excess [14]: -0.0637
Bliss excess [15]: -0.0822
Bliss excess [16]: 0.0298
Bliss excess [17]: -0.0866

Cc1cc2ncnn2cc1Nc1ncc2c(n1)n(C1CCOCC1)c(=O)n2C [AZD7648] + CCN(CCO)CCCOc1ccc2c(Nc3cc(CC(=O)Nc4cccc(F)c4)[nH]n3)ncnc2c1 [AZD2811] (first compound max 10 µM, 7x7, partner max 1 µM)
combination Emax [1]: 0.349
combination Emax [2]: 0.362
combination Emax [3]: 0.245
combination Emax [4]: 0.342
combination Emax [5]: 0.945
combination Emax [6]: 0.213
combination Emax [7]: 0.282
combination Emax [8]: 0.573
combination Emax (SK-N-AS (Neuroblastoma)): 0.46
Bliss excess [9]: -0.0491
Bliss excess [10]: 0.0041
Bliss excess [11]: 0.0547
Bliss excess [12]: 0.0569
Bliss excess (Hey (Ovarian Carcinoma)): 0.113
Bliss excess [13]: 0.0064
Bliss excess (EW-1 (Ewing's Sarcoma)): 0.053
Bliss excess [14]: -0.0151
Bliss excess [15]: -0.0147
Bliss excess [16]: 0.0713
Bliss excess [17]: -0.0065

CN(CCO)CC[C@H](CSc1ccccc1)Nc1ccc(S(=O)(=O)NC(=O)c2ccc(N3CCC([C@@H](O)c4ccccc4-c4ccc(Cl)cc4)CC3)cc2)cc1S(=O)(=O)C(F)(F)F [AZD4320] + C[C@@H]1COCCN1C2=NC(=NC(=C2)C3(CC3)[S@](=N)(=O)C)C4=C5C=CNC5=NC=C4 [AZD6738] (first compound max 1 µM, 7x7, partner max 10 µM)
combination Emax [1]: 0.773
combination Emax [2]: 0.803
combination Emax [3]: 0.843
combination Emax [4]: 1
combination Emax [5]: 1
combination Emax [6]: 0.156
combination Emax [7]: 0.663
combination Emax [8]: 0.766
combination Emax (SK-N-AS (Neuroblastoma)): 0.949
Bliss excess [9]: -0.0445
Bliss excess [10]: -0.0167
Bliss excess [11]: -0.0269
Bliss excess [12]: 0.0261
Bliss excess (Hey (Ovarian Carcinoma)): -0.0697
Bliss excess [13]: -0.0241
Bliss excess (EW-1 (Ewing's Sarcoma)): 0.0574
Bliss excess [14]: 0.0144
Bliss excess [15]: -0.0234
Bliss excess [16]: -0.0246
Bliss excess [17]: -0.0283

CN(CCO)CC[C@H](CSc1ccccc1)Nc1ccc(S(=O)(=O)NC(=O)c2ccc(N3CCC([C@@H](O)c4ccccc4-c4ccc(Cl)cc4)CC3)cc2)cc1S(=O)(=O)C(F)(F)F [AZD4320] + C[C@@H](Nc1cc(F)cc(F)c1)c1cc(C(=O)N(C)C)cc2c(=O)cc(N3CCOCC3)oc12 [AZD8186] (first compound max 1 µM, 7x7, partner max 3 µM)
combination Emax [1]: 0.509
combination Emax [2]: 0.48
combination Emax [3]: 0.229
combination Emax [4]: 0.935
combination Emax [5]: 1
combination Emax [6]: 0.213
combination Emax [7]: 0.634
combination Emax [8]: 0.874
combination Emax (SK-N-AS (Neuroblastoma)): 0.406
Bliss excess [9]: 0.0139
Bliss excess [10]: 0.0389
Bliss excess [11]: 0
Bliss excess [12]: 0.022
Bliss excess (Hey (Ovarian Carcinoma)): -0.0027
Bliss excess [13]: -0.008
Bliss excess (EW-1 (Ewing's Sarcoma)): 0.0604
Bliss excess [14]: 0.0343
Bliss excess [15]: 0.0081
Bliss excess [16]: 0.0392
Bliss excess [17]: -0.0212

C[C@@H](c1ccc2nccn2c1)n1nnc2ncc(-c3cnn(C)c3)nc21 [Savolitinib] + Cc1c2c(nn1C)CSCc1cc(n(C)n1)CSc1cc(c3ccccc3c1)OCCCc1c(C(=O)O)n(C)c3c-2c(Cl)ccc13 [AZD5991] (first compound max 1 µM, 7x7, partner max 1 µM)
combination Emax [1]: 0.212
combination Emax [2]: 0.261
combination Emax [3]: 0.328
combination Emax [4]: 0.291
combination Emax [5]: 1
combination Emax [6]: 0.281
combination Emax [7]: 0.219
combination Emax [8]: 0.789
combination Emax (SK-N-AS (Neuroblastoma)): 0.314
Bliss excess [9]: 0.0218
Bliss excess [10]: -0.0875
Bliss excess [11]: -0.0513
Bliss excess [12]: -0.0163
Bliss excess (Hey (Ovarian Carcinoma)): -0.0321
Bliss excess [13]: -0.0386
Bliss excess (EW-1 (Ewing's Sarcoma)): -0.0001
Bliss excess [14]: -0.0598
Bliss excess [15]: -0.045
Bliss excess [16]: 0.0789
Bliss excess [17]: -0.0463

Cc1cc2ncnn2cc1Nc1ncc2c(n1)n(C1CCOCC1)c(=O)n2C [AZD7648] + C[C@@H]1COCCN1C2=NC(=NC(=C2)C3(CC3)[S@](=N)(=O)C)C4=C5C=CNC5=NC=C4 [AZD6738] (first compound max 10 µM, 7x7, partner max 10 µM)
combination Emax [1]: 0.581
combination Emax [2]: 0.832
combination Emax [3]: 0.784
combination Emax [4]: 0.984
combination Emax [5]: 0.983
combination Emax [6]: 0.193
combination Emax [7]: 0.47
combination Emax [8]: 0.665
combination Emax (SK-N-AS (Neuroblastoma)): 0.938
Bliss excess [9]: -0.0062
Bliss excess [10]: 0.0073
Bliss excess [11]: 0.0176
Bliss excess [12]: 0.0311
Bliss excess (Hey (Ovarian Carcinoma)): 0.0229
Bliss excess [13]: -0.0345
Bliss excess (EW-1 (Ewing's Sarcoma)): 0.024
Bliss excess [14]: 0.0198
Bliss excess [15]: 0.0048
Bliss excess [16]: -0.0187
Bliss excess [17]: 0.0336

COc1cc2ncnc(Nc3ccc(F)c(Cl)c3)c2cc1OCCCN1CCOCC1 [Gefitinib] + CC(C)n1c(=O)n(C)c2cnc3cc(F)c(-c4ccc(OCCCN5CCCCC5)nc4)cc3c21 [AZD1390] (first compound max 10 µM, 7x7, partner max 0.3 µM)
combination Emax [1]: 0.292
combination Emax [2]: 0.204
combination Emax [3]: 0.413
combination Emax [4]: 0.488
combination Emax [5]: 0.754
combination Emax [6]: 0.196
combination Emax [7]: 0.199
combination Emax [8]: 0.349
combination Emax (SK-N-AS (Neuroblastoma)): 0.0247
Bliss excess [9]: -0.103
Bliss excess [10]: -0.0528
Bliss excess [11]: -0.0508
Bliss excess [12]: -0.0754
Bliss excess (Hey (Ovarian Carcinoma)): -0.0573
Bliss excess [13]: -0.108
Bliss excess (EW-1 (Ewing's Sarcoma)): -0.064
Bliss excess [14]: -0.112
Bliss excess [15]: -0.0791
Bliss excess [16]: -0.0725
Bliss excess [17]: -0.0541

COc1cc2c(cc1OCCCCCOc1cc3c(cc1OC)C(=O)N1C=C(C)C[C@H]1C=N3)N=C[C@@H]1CC(C)=CN1C2=O [SG3199] + O=C(c1cc(Cc2n[nH]c(=O)c3ccccc23)ccc1F)N1CCN(C(=O)C2CC2)CC1 [Olaparib] (first compound max 0.001 µM, 7x7, partner max 10 µM)
combination Emax [1]: 0.0833
combination Emax [2]: 0.128
combination Emax [3]: 0.0504
combination Emax [4]: 0.215
combination Emax [5]: 0.402
combination Emax [6]: 0.144
combination Emax [7]: 0.0757
combination Emax [8]: 0.0845
combination Emax (SK-N-AS (Neuroblastoma)): 0.0679
Bliss excess [9]: -0.0795
Bliss excess [10]: -0.0165
Bliss excess [11]: 0.0073
Bliss excess [12]: -0.0029
Bliss excess (Hey (Ovarian Carcinoma)): -0.0086
Bliss excess [13]: -0.0623
Bliss excess (EW-1 (Ewing's Sarcoma)): 0.0403
Bliss excess [14]: -0.0313
Bliss excess [15]: -0.0206
Bliss excess [16]: -0.0265
Bliss excess [17]: -0.0099
